In ChEMBL document CHEMBL4304795, “Bis-benzoxaboroles: Design, Synthesis, and Biological Evaluation as Carbonic Anhydrase Inhibitors” (ACS Med Chem Lett, 2019):

Tests used:
Carbonic anhydrase 1 = Carbonic anhydrase 1 (Homo sapiens, UniProt P00915); experiment: Inhibition of human carbonic anhydrase 1 assessed as reduction in CO2 hydration preincubated for 15 mins to 2 hrs by phenol red dye based stopped flow CO2 hydrase assay
Carbonic anhydrase 2 = Carbonic anhydrase 2 (Homo sapiens, UniProt P00918); experiment: Inhibition of human carbonic anhydrase 2 assessed as reduction in CO2 hydration preincubated for 15 mins to 2 hrs by phenol red dye based stopped flow CO2 hydrase assay
Carbonic anhydrase 9 = Carbonic anhydrase 9 (Homo sapiens, UniProt Q16790); experiment: Inhibition of human carbonic anhydrase 9 assessed as reduction in CO2 hydration preincubated for 15 mins to 2 hrs by phenol red dye based stopped flow CO2 hydrase assay
Carbonic anhydrase 4 = Carbonic anhydrase 4 (Homo sapiens, UniProt P22748); experiment: Inhibition of human carbonic anhydrase 4 assessed as reduction in CO2 hydration preincubated for 15 mins to 2 hrs by phenol red dye based stopped flow CO2 hydrase assay
Carbonic anhydrase 4, sequence (P22748 whole entry): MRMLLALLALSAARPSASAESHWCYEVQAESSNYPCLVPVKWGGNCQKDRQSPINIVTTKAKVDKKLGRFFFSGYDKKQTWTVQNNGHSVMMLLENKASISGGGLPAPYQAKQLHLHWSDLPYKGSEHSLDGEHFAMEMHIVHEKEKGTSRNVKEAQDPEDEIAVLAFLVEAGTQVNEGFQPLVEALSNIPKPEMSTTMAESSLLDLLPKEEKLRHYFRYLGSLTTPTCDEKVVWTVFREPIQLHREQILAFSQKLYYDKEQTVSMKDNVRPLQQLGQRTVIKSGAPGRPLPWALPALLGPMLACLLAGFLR

Carbonic anhydrase 1, sequence (P00915 whole entry): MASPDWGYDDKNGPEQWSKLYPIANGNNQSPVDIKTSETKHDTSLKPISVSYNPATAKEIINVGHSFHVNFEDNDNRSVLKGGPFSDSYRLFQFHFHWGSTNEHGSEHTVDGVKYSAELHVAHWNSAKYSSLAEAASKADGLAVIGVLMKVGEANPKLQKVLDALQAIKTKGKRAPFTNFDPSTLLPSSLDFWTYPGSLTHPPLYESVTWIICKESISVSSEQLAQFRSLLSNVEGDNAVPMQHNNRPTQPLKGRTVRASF

| Structure (SMILES) | Ki (Carbonic anhydrase 1) [nM] | Ki (Carbonic anhydrase 2) [nM] | Ki (Carbonic anhydrase 9) [nM] | Ki (Carbonic anhydrase 4) [nM] |
| --- | --- | --- | --- | --- |
| O=c1c(Nc2ccc3c(c2)B(O)OC3)c(Nc2ccc3c(c2)B(O)OC3)c1=O | 3080 | 2280 |  |  |
| O=C(/C=C/C=C/C(=O)Nc1ccc2c(c1)B(O)OC2)Nc1ccc2c(c1)B(O)OC2 | 3300 | 3930 | 4870 |  |
| O=C(/C=C/C(=O)Nc1ccc2c(c1)B(O)OC2)Nc1ccc2c(c1)B(O)OC2 | 3210 | 1710 | 1480 |  |
| OB1OCc2ccc(/N=C/c3ccc(/C=N/c4ccc5c(c4)B(O)OC5)s3)cc21 | 4130 | 2340 | 203 |  |
| O=C(O)c1ccc2c(c1)B(O)OC2 | 850 | 173 | 400 |  |
| O=C(Nc1ccc2c(c1)B(O)OC2)c1cc(C(=O)Nc2ccc3c(c2)B(O)OC3)cc(C(=O)Nc2ccc3c(c2)B(O)OC3)c1 | 21900 | 39300 | 8630 | > 100000 |

The remaining lines, values ahead:

| Ki (Carbonic anhydrase 1) [nM] | Ki (Carbonic anhydrase 2) [nM] | Ki (Carbonic anhydrase 9) [nM] | Ki (Carbonic anhydrase 4) [nM] | Structure (SMILES) |
| --- | --- | --- | --- | --- |
| 1780 | 289 | 64.3 |  | O=C(CC[C@H](NC(=O)OCc1ccccc1)C(=O)Nc1ccc2c(c1)B(O)OC2)Nc1ccc2c(c1)B(O)OC2 |
| 886 | 339 | 158 |  | O=C(CC(=O)Nc1ccc2c(c1)B(O)OC2)Nc1ccc2c(c1)B(O)OC2 |
| 2890 | 342 | 680 |  | O=C(CCC(=O)Nc1ccc2c(c1)B(O)OC2)Nc1ccc2c(c1)B(O)OC2 |
| 813 | 908 | 280 |  | CC(C)(C)OC(=O)N[C@@H](CC(=O)Nc1ccc2c(c1)B(O)OC2)C(=O)Nc1ccc2c(c1)B(O)OC2 |
| 1670 | 541 | 312 |  | O=C(CCCCC(=O)Nc1ccc2c(c1)B(O)OC2)Nc1ccc2c(c1)B(O)OC2 |
| 2450 | 2580 | 1120 |  | O=C(C/C=C/CC(=O)Nc1ccc2c(c1)B(O)OC2)Nc1ccc2c(c1)B(O)OC2 |
